The values below come from patent US10993984B2, “Terlipressin compositions and their methods of use” (Chiasma, Inc., priority 2016, dated 2021).

Bridge positions count the residues as written; N and C are the ends. Peptide text beside a SMILES is read from it.

A short description of the data set: in vivo. To be noted: dog, iv, 0.2 mg.

Protocol: The IV dosage was 0.2 mg per dog which is similar to the therapeutic dosage in humans. The oral dosage was 20 mg, and was selected by assuming a BA of about 1%. The concentration of both terlipressin and the active metabolite lysine vasopressin are shown as a function of time. The pharmacokinetic parameters of the active metabolite lysine-vasopressin were determined as well as terlipressin. Each Glypressin ampule contains 1 mg terlipressin acetate, which is equivalent to 0.85 mg terlipressin base. All doses in this study are expressed on the basis of terlipressin base.
All animals were fasted for at least 12 hours prior to dosing and through the first 4 hours of blood sample collection.
In the oral terlipressin capsule treatments, in order to acidify the stomach of the dog, approximately 30 minutes prior to dosing each animal received a single subcutaneous (SC) injection of pentagastrin (0.12 mg/mL) at a dose level of 0.006 mg/kg and a dose volume of 0.05 mL/kg. The same dogs can be used for more than one treatment, with a wash-out period of at least 1 week.
Blood was withdrawn at pre-determined times as follows:

On to `NCCCC[C@H](NC(=O)[C@@H]1CCCN1C(=O)[C@@H]1CSSC[C@H](NC(=O)CNC(=O)CNC(=O)CN)C(=O)N[C@@H](Cc2ccc(O)cc2)C(=O)N[C@@H](Cc2ccccc2)C(=O)N[C@@H](CCC(N)=O)C(=O)N[C@@H](CC(N)=O)C(=O)N1)C(=O)NCC(N)=O` [IV terlipressin, Terlipressin] (H-GGGCYFQNCPKG-NH2; disulfide 4-9), for which the AUC(0-inf) (commonly the area under the concentration-time curve extrapolated to infinity) turned out to be 9.14 ng·h/mL; the AUC(0-t) (commonly exposure summed from dosing to a finite time, without extrapolation to infinity) turned out to be 9.13 ng·h/mL; the Cmax – broadly, the highest concentration seen after dosing – is 59.1 ng/mL; the half-life – broadly, the time in which the quantity being followed falls by half – was 13.9 ± 1.32 min.
